Data on 24 molecules can be found in patent US6794379B2, “CXCR3 antagonists” (Tularik Inc., priority 2001, dated 2004).

Molecules are shown by their SMILES. Structures can show the parent of a compound that is named as a salt.

Usually melting point stands for the temperature of the solid-liquid transition. `CC(c1nc2ccccc2c(=O)n1-c1ccc(F)cc1)N(CCN(C)C)C(=O)Cc1ccccc1` (stereo not drawn) came in with a melting point of 153 °C. For the molecule `Cc1ccc(CC(=O)N(CCN(C)C)C(C)c2nc3ccccc3c(=O)n2-c2ccc(F)cc2)cc1` (stereo not drawn), the melting point came to 188.3 °C.

`CCOCCN(C(=O)Cc1ccc(-c2ccccc2)cc1)C(C)c1nc2ccccc2c(=O)n1-c1ccc(OCC)cc1` (stereo not drawn) yielded a melting point of 98.1 °C. To `C[C@H](c1nc2ccccc2c(=O)n1-c1ccc(F)cc1)N(Cc1nccs1)C(=O)Cc1ccc(C(F)(F)F)cc1` belongs 173 to 174 °C. With `CCOc1ccc(-n2c(C(C)N(Cc3ccccn3)C(=O)Cc3ccc(C(F)(F)F)cc3)nc3ccccc3c2=O)cc1` (stereo not drawn) (as salt: hydrochloride) [Compound 3.04, 2-((N-2-Picolyl)-N-(4-trifluoromethylphenylacetyl)-1-aminoethyl)-3-(4-ethoxyphenyl) -3H-quinazoline-4-one] the figure was 167.5 °C; with `CC(c1nc2ccccc2c(=O)n1-c1ccc(F)cc1)N(Cc1cccnc1)C(=O)Cc1ccc(C(F)(F)F)cc1` (racemic), 167 °C; with `CC(c1nc2ccccc2c(=O)n1-c1ccc(F)cc1)N(CCN(C)C)C(=O)c1ccc(-c2ccccc2)cc1` (stereo not drawn) [Compound 1.06], 147.3 °C.

On to `COCCN(C(=O)Cc1ccc(-c2ccccc2)cc1)C(C)c1nc2ccccc2c(=O)n1-c1ccc(F)cc1` (stereo not drawn) [Compound 1.17], for which the melting point came to 153.8 °C.

The molecule `CCOCCN(C(=O)Cc1ccc(-c2ccccc2)cc1)C(C)c1nc2ccccc2c(=O)n1-c1ccc(F)cc1` (stereo not drawn) [Compound 1.19] registered a melting point of 150.6 °C. To `COc1ccc(-n2c(C(C)N(CCN3CCCC3)C(=O)Cc3ccc(-c4ccccc4)cc3)nc3ccccc3c2=O)cc1F` (stereo not drawn) [Compound 1.33] belongs 96.9 °C; to `COc1ccc(-n2c(C(C)N(CCN3CCCC3)C(=O)Cc3ccc(-c4ccccc4)cc3)nc3ccccc3c2=O)cc1` (stereo not drawn) [Compound 1.34], 116.3 °C; to `COc1ccc(-n2c(C(C)N(CCN(C)C)C(=O)Cc3ccc(OCc4ccccc4)cc3)nc3ccccc3c2=O)cc1` (stereo not drawn) [Compound 1.36], 61.3 °C. `C#Cc1ccc(-n2c(C(C)N(CCOC)C(=O)Cc3ccc(-c4ccccc4)cc3)nc3ccccc3c2=O)cc1` (stereo not drawn) [Compound 3.12, 2-((N-2-Methoxyethyl)-N-(4-phenylphenylacetyl)-1-aminoethyl)-3-(4-ethynylphenyl) -3H-quinazoline-4-one] registered a melting point of 73.3 °C. In the case of `CC(=O)CN(C(=O)Cc1ccc(C(F)(F)F)cc1)[C@H](C)c1nc2ccccc2c(=O)n1-c1ccc(F)cc1` [Compound 3.22], the melting point is 220 to 221 °C. With `CCOCCN(C(=O)Cc1cc(C(F)(F)F)cc(C(F)(F)F)c1)[C@H](C)c1nc2ccccc2c(=O)n1-c1ccc(OCC)cc1` [Compound 3.25] the figure was 57 to 60 °C; with `CCOCCN(C(=O)Cc1ccc(F)c(C(F)(F)F)c1)[C@H](C)c1nc2ccccc2c(=O)n1-c1ccc(OCC)cc1` [Compound 3.26], 137 to 138 °C; with `CCOCCN(C(=O)Cc1ccc(C(F)(F)F)c(F)c1)[C@H](C)c1nc2ccccc2c(=O)n1-c1ccc(OCC)cc1` [Compound 3.27], 146 to 148 °C. Regarding `CCOc1ccc(-n2c([C@@H](C)N(Cc3cccnc3)C(=O)Cc3ccc(OCC(F)(F)F)cc3)nc3ccccc3c2=O)cc1` [Compound 3.28], the melting point lay in the range of 103 to 104 °C. To `CCOCCN(C(=O)Cc1ccc(OC(F)(F)F)cc1)C(C)c1nc2ccccc2c(=O)n1-c1ccc(OCC)cc1` (stereo not drawn) [Compound 3.30] belongs 153 °C; to `CCOCCN(C(=O)Cc1ccc(F)c(F)c1F)C(C)c1nc2ccccc2c(=O)n1-c1ccc(OCC)cc1` (stereo not drawn) [Compound 3.32], 146.3 °C; to `CCOc1ccc(-n2c(C(C)N(Cc3cccnc3)C(=O)Cc3ccc(F)c(F)c3)nc3ccccc3c2=O)cc1` (stereo not drawn) [Compound 3.34], 75.5 °C. With `C[C@H](c1nc2ccccc2c(=O)n1-c1ccc(F)cc1)N(CCOCC(F)(F)F)C(=O)Cc1ccc(-c2ccccc2)cc1` [Compound 9.03], the melting point was found to be 167.9 °C. With `C[C@H](c1nc2ccccc2c(=O)n1-c1ccc(F)cc1)N(CCOCC(F)(F)F)C(=O)Cc1ccc(C(F)(F)F)cc1` [Compound 9.04] the figure was 156.2 °C; with `CCOCCN(C(=O)Cc1cccc(C(F)(F)F)c1)C(C)c1nc2ccccc2c(=O)n1-c1ccc(OCC)cc1` (stereo not drawn) [Compound 9.08], 157.9 °C.
